Reference: patent US8618068B2, “Methods and low dose regimens for treating red blood cell disorders” (priority 2009, dated 2013)
Several values for one entry are separate records, joined by “and”; a condition that tells them apart may be missing. Identical values can stand only once.

How the values were obtained:
[1] = tested on: F-reticulocytes; assay: F-reticulocyte production in anemic baboons; type: in vivo
Description: Expression of γ-globin and erythroid cell production was evaluated in a primate model in which baboons are phlebotomized on a daily basis to simulate the chronic RBC destruction associated with hemoglobinopathies. In this model, baboons, aged 2 to 3 years, had 2.5 to 7 mL/kg of blood withdrawn daily, and the volume replaced with an identical volume of normal saline. Hemoglobin levels were lowered relative to control levels, but were maintained between 6.5 to 7.5 g/dL, the level necessary for the modulation of globin genes in this animal species. The animals were supplemented with iron dextran and folic acid. The phlebotomy regimen effectively exchanged the animals' total blood volume every 10 to 20 days.
Globin chain protein synthesis was measured in DMB treated animals using ^3H-leucine-labeled reticulocytes before and 2 and 4 days after treatment. Complete blood counts and reticulocyte counts were monitored 3 times per week and plasma concentrations of the test article was determined. DMB was administered intravenously (IV, daily) or orally via nasogastric gavage under light anesthesia (on 3 alternating days per week for up to 6 weeks), on a dose-escalation schedule with starting doses of 500 to 800 mg/kg. If γ globin induction was observed, lower doses (40-200 mg/kg) were tested. Recombinant human erythropoietin (rhu-EPO) was also administered in separate treatment courses to 2 baboons at doses of 300 U/kg three times per week subcutaneously as a positive control for the erythropoietic effects of DMB. Treatments were performed in individual baboons.
In the anemic baboon model, increases in F-reticulocytes were usually observed within 2-3 days of treatment initiation and diminished within 3 to 5 days of treatment cessation.

[2] = tested on: γ-globin mRNA; assay: γ-globin mRNA in anemic baboons given HU and DMB; type: in vivo; details: HU 3 days/week
[3] = 28-Day repeat dose toxicity study in rats; type: in vivo, Sprague Dawley rats
Source text: Completed toxicology studies conducted with DMB include a single-dose toxicity study in Sprague-Dawley rats, escalating dose toxicity study in Beagle dogs, a repeat dose study of 14-Day duration in Sprague-Dawley rats and repeat-dose toxicity studies of 28-Day duration in Sprague-Dawley rats and Beagle dogs, and 26-Week studies in Sprague-Dawley rats and Beagle dogs. […] Reproductive toxicity studies include two dose-range finding studies, one in Sprague-Dawley rats, the other in New Zealand white rabbits. DMB was administered once a day (QD) orally via gavage; doses are expressed as the sodium salt. In addition, an array of genotoxicity studies were conducted with DMB.
There were no histologic correlates with these findings. […] These changes in organ weight were not associated with abnormal pathology and not considered adverse.
Kidney weight was not increased in the single surviving 2,000/1,500 mg/kg/day male. […] There were no test article-related histomorphologic alterations consistent with the increase in absolute or relative kidney weights at either dose level.
Several clinical pathology changes occurred in the 28-Day Sprague Dawley rat study. […] At ≧1,000 mg/kg/day, decreases in Hgb, Hct, MCV, and MCHC, were observed. Decreases in Hgb, Hct, and MCV were also seen in 500 mg/kg/day females. Activated partial thromboplastin time was decreased in males at ≧1,000 mg/kg/day and females at 2,000/1,500 mg/kg/day and prothrombin time was increased in males of both groups. […] These serum chemistry changes were associated with the decreases seen in body weights and food consumption in these groups.

[4] = Toxicokinetics, 26-week rat study; type: in vivo, Sprague Dawley rats; details: for AUC(0-inf): both sexes, Sprague Dawley, rat, plasma, po, mean of male and female rats
Description: DMB was administered to Sprague Dawley rats daily for 26 weeks at doses of 50, 100 and 500 mg/kg/day via oral gavage. Plasma levels of DMB were measured at 1 to 24 hours post-dose on Days 1 and 181. […] Systemic exposure increased with increasing dose level and was greater than dose-proportional on Day 0 and Day 181. The peak and extent of systemic exposure of Sprague Dawley rats to DMB were similar in males and females. Systemic exposure values on Day 181 ranged from 137% to 218% of the values at Day 0 indicating an accumulation of DMB during this time period.
Toxicokinetic information from the 26-week rat (Table 7) and 26-week dog toxicity studies (Table 8) are compared to systemic exposure (AUC) levels determined in a clinical study.

[5] = Half-life of DMB (summary statement); details: in vivo

CCC(C)(C)C(=O)[O-].[Na+] [DMB, Sodium 2,2-dimethylbutyrate]
F-reticulocytes Mean Fold Increase ([1]; 150 mg/kg/day, IV, 5 days): 5
F-reticulocytes Mean Fold Increase ([1]; 200 mg/kg/day, IV, 5 days/wk): 15
F-reticulocytes Mean Fold Increase ([1]; 500 mg/kg/2nd day, Oral, 5 days/wk, 2 wks): 3.8
F-reticulocytes Mean Fold Increase ([1]; 500-700 mg/kg/2nd day, Oral): 3.8
γ-globin mRNA increase above baseline [2]: 290%
RBC, lymphocyte, and leukocyte counts ([3]; 2,000/1,500 mg/kg/day): decreased
NOAEL at 28 days ([3]; female, Sprague Dawley, rat, in vivo): 200 mg/kg/day and 32 mg/kg
aspartate aminotransferase (AST) ([3]; males 1,000 mg/kg/day): slight increases
alanine aminotransferase (ALT) ([3]; males 1,000 mg/kg/day, females 2,000/1,500 mg/kg/day): slight increases
mean absolute and relative kidney weights ([3]; males 500 and 1,000 mg/kg/day, females 1,000 mg/kg/day): statistically significant, test article-related increases
mean absolute and relative liver weights ([3]; males and females at 1,000 mg/kg/day): statistically significant, test article-related increases
prothrombin time ([3]; males of both groups): increased
Activated partial thromboplastin time ([3]; males ≧1,000 mg/kg/day, females 2,000/1,500 mg/kg/day): decreased
Hgb, Hct, MCV, and MCHC ([3]; ≧1,000 mg/kg/day): decreases
time of peak plasma concentrations ([4]; Day 0): 1 h
AUC(0-inf) ([4]; 50 mg/kg): 125 µg·h/mL
AUC(0-inf) ([4]; 100 mg/kg): 278 µg·h/mL
AUC(0-inf) ([4]; 500 mg/kg (NOAEL)): 3440 µg·h/mL
rat AUC0-∞ relative to human AUC0-∞ ([4]; rat 50 mg/kg vs human 2 mg/kg): 3.2X
rat AUC0-∞ relative to human AUC0-∞ ([4]; rat 50 mg/kg vs human 5 mg/kg): 0.4X
rat AUC0-∞ relative to human AUC0-∞ ([4]; rat 50 mg/kg vs human 10 mg/kg): 0.2X
rat AUC0-∞ relative to human AUC0-∞ ([4]; rat 50 mg/kg vs human 20 mg/kg): 0.1X
rat AUC0-∞ relative to human AUC0-∞ ([4]; rat 100 mg/kg vs human 2 mg/kg): 7.3X
rat AUC0-∞ relative to human AUC0-∞ ([4]; rat 100 mg/kg vs human 5 mg/kg): 0.9X
rat AUC0-∞ relative to human AUC0-∞ ([4]; rat 100 mg/kg vs human 10 mg/kg): 0.5X
rat AUC0-∞ relative to human AUC0-∞ ([4]; rat 100 mg/kg vs human 20 mg/kg): 0.2X
rat AUC0-∞ relative to human AUC0-∞ ([4]; rat 500 mg/kg (NOAEL) vs human 2 mg/kg): 91X
rat AUC0-∞ relative to human AUC0-∞ ([4]; rat 500 mg/kg (NOAEL) vs human 5 mg/kg): 10.7X
rat AUC0-∞ relative to human AUC0-∞ ([4]; rat 500 mg/kg (NOAEL) vs human 10 mg/kg): 6.4X
rat AUC0-∞ relative to human AUC0-∞ ([4]; rat 500 mg/kg (NOAEL) vs human 20 mg/kg): 2.9 X
half-life [5]: 9 to 11 h
